In one data set the target is Histone deacetylase 1 (Homo sapiens, UniProt Q13547). Put plainly: Inhibition of HDAC1 (unknown origin) using fluorogenic substrate incubated for 30 mins by fluorescence based assay.
For data set [1], the target named is T1, Protein deacetylase HDAC6 (Homo sapiens, UniProt Q9UBN7).
T1 sequence (Q9UBN7 whole entry): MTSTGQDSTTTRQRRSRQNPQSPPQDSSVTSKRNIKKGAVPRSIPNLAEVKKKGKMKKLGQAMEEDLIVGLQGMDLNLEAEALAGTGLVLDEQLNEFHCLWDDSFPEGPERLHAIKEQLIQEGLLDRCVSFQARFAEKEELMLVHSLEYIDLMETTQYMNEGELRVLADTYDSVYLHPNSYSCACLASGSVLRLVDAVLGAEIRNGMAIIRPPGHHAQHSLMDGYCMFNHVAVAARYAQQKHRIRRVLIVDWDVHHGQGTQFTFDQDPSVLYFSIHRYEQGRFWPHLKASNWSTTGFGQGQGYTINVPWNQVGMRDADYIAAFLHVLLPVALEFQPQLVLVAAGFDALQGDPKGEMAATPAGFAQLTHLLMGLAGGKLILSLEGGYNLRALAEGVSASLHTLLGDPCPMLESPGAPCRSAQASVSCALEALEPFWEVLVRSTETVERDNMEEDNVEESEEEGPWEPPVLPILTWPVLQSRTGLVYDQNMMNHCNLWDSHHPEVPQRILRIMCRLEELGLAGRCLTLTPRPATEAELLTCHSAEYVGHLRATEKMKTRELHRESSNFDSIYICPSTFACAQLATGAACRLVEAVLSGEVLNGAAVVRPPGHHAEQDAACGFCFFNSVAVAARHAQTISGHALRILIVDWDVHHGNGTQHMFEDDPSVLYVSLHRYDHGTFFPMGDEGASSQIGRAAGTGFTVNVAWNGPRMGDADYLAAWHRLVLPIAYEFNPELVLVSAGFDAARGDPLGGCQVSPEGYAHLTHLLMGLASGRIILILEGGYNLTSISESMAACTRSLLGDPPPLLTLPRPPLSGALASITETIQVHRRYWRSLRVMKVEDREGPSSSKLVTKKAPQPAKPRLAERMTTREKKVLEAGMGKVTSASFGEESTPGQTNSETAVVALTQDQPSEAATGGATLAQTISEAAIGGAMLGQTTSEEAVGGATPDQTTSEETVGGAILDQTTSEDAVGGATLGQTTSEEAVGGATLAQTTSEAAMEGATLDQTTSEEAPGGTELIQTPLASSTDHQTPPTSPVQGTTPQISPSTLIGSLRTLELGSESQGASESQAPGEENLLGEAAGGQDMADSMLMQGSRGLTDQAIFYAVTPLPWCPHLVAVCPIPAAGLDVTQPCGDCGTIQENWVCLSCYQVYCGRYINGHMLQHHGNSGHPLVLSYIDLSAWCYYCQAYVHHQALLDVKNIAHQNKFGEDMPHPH
Put plainly: Inhibition of HDAC6 (unknown origin) using fluorogenic substrate incubated for 30 mins by fluorescence based assay.

The next data set concerns the target T2, Histone deacetylase 8 (Homo sapiens, UniProt Q9BY41).
T2 sequence (Q9BY41 whole entry): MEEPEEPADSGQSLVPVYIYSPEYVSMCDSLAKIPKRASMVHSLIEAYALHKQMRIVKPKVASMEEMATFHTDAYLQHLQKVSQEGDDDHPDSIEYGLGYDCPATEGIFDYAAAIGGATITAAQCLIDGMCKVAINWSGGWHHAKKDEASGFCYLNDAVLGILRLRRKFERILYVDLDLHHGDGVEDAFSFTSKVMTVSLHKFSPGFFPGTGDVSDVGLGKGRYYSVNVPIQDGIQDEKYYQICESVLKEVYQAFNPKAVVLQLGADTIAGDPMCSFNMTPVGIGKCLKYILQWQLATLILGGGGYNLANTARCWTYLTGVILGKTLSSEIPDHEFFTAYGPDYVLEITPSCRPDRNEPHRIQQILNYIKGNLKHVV
Put plainly: Inhibition of HDAC8 (unknown origin) using fluorogenic substrate incubated for 30 mins by fluorescence based assay.

Another data set deals with PC-3. Put plainly: cells. In kind it is functional, cell-based. The note with it: Homo sapiens, PC-3, 48 h.
The subject of a further data set is HepG2. Put plainly: cells. Type of data set: functional, cell-based. The settings on record: Homo sapiens, HepG2, 48 h.
The subject of the next data set is KG-1. Description: Antiproliferative activity against human KG-1 cells assessed as inhibition of cell growth measured after 48 hrs by MTT assay. The settings on record: KG-1, 48 h. Type of data set: functional, cell-based.
For the next data set, the system named is HEL. Description: Antitumor activity against HEL cells xenografted in mouse assessed as inhibition of tumor growth at 90 mg/kg, ip administered for 20 days. Type of data set: functional, organism-based. The note with it: Homo sapiens, time 20.0 day.
The nature of data set [2]: Toxicity in mouse xenografted with HEL cells assessed as effect on body weight at 90 mg/kg, ip administered for 20 days. The settings on record: in vivo, 480 h, time 20 day. Type of data set: organism-based.
The test system of data set [3] is B16-F10. Put plainly: cells. The settings on record: Mus musculus, B16-F10, 48 h. In kind it is functional, cell-based.
Description: Antiproliferative activity against mouse B16-F10 cells assessed as inhibition of cell growth measured after 48 hrs by MTT assay
Data set [4] concerns B16-F10. Description: Induction of apoptosis in mouse B16-F10 cells at 5 to 10 uM measured after 24 hrs by Annexin V-FITC/propidium iodide staining based flow cytometry analysis. Type of data set: functional, cell-based. The note with it: dose 5-10 µM. For orientation: A flow cytometer gives signals particle by particle.
In data set [5] the test system is B16-F10. Put plainly: Antitumor activity against mouse B16-F10 cells implanted in C57BL/6J mouse assessed as reduction on tumor size at 60 mg/kg, IG administered for 12 days. Type of data set: functional, organism-based. The note with it: time 12.0 day.
Data set [6] in a line: Toxicity in C57BL/6J mouse implanted with mouse B16-F10 cells assessed as effect on body weight at 60 mg/kg, IG administered for 12 days. The settings on record: in vivo, po, 288 h, time 12 day. In kind it is organism-based.
Data set [7] is described as follows: Toxicity in C57BL/6J mouse implanted with mouse B16-F10 cells assessed as liver damage at 60 mg/kg, IG administered for 12 days H and E staining based histopathological analysis. Type of data set: organism-based. The settings on record: in vivo, po, 288 h, time 12 day.
A short description of data set [8]: Toxicity in C57BL/6J mouse implanted with mouse B16-F10 cells assessed as spleen damage at 60 mg/kg, IG administered for 12 days H and E staining based histopathological analysis. The settings on record: in vivo, po, 288 h, time 12 day. In kind it is organism-based.
The subject of data set [9] is B16-F10. Description: Antitumor immunity against mouse B16-F10 cells implanted in C57BL/6J mouse assessed as fold increase in proportion of macrophages in spleen by flow cytometry analysis relative to control. Type of data set: functional.
Data set [10] deals with B16-F10. Put plainly: Antitumor immunity against mouse B16-F10 cells implanted in C57BL/6J mouse assessed as fold increase in CD86 expression by flow cytometry analysis relative to control. In kind it is functional.
Data set [11] deals with B16-F10. Put plainly: Antitumor immunity against mouse B16-F10 cells implanted in C57BL/6J mouse assessed as fold reduction in Treg cells in spleen by flow cytometry analysis relative to control. In kind it is functional.
The subject of data set [12] is B16-F10. Description: Antitumor activity against mouse B16-F10 cells xenografted in C57BL/6J mouse assessed as reduction in tumor heterogeneity at 60 mg/kg, IG administered for 12 days by H and E staining based histopathological analysis. The settings on record: time 12.0 day. In kind it is functional, organism-based.
Data set [13] relates to B16-F10. Put plainly: Antitumor activity against mouse B16-F10 cells xenografted in C57BL/6J mouse assessed as change in tumor cell morphology into normal tissue at 60 mg/kg, IG administered for 12 days by H and E staining based histopathological analysis. The settings on record: time 12.0 day. Type of data set: functional, organism-based.

Calls of active or inactive are those of the source. No cut-off for these calls is given here.

Histone deacetylase 1, sequence (Q13547 whole entry): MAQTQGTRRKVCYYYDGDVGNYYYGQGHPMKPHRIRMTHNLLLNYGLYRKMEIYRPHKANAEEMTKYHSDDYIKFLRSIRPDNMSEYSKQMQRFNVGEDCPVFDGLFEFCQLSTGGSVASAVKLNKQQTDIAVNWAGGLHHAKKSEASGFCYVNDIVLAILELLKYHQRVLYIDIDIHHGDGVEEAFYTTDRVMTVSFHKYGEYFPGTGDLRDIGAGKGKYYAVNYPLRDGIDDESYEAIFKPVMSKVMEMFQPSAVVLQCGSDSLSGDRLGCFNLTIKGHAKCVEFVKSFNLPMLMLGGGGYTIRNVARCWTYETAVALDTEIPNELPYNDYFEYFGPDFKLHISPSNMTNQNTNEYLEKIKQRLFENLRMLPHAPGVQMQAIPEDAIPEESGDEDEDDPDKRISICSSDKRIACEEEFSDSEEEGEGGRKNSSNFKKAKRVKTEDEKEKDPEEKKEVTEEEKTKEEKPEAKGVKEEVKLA
Description for HepG2: Antiproliferative activity against human HepG2 cells assessed as inhibition of cell growth measured after 48 hrs by MTT assay
Description for PC-3: Antiproliferative activity against human PC3 cells assessed as inhibition of cell growth measured after 48 hrs by MTT assay

What is called IC50 is the point on the concentration scale where inhibition reaches its midpoint. Turning to `O=C(CCCCCCCOc1cccc(-c2nc3ccccc3[nH]2)c1)NO`, the IC50 on Histone deacetylase 1 is 0.052 µM; in data set [1], 0.0092 µM; at Histone deacetylase 8, 0.0129 µM; in the data set on PC-3, 7.9 µM; in the data set with HepG2 it was 4.8 µM; in the data set on KG-1 it was 3.4 µM. The IC50 in the data set with B16-F10 [3] amounted to 3.97 µM. The outcome in the data set with HEL, in the data set with B16-F10 [4], with B16-F10 [5], with B16-F10 [12] and in the data set with B16-F10 [13] was Active. Further, the Activity result in data set [2], in data set [6], in data set [7] and in data set [8] was “Non-Toxic” each time. For the same compound, the entries for the “fold change (FC)” value in the data set with B16-F10 [9], in the data set on B16-F10 [10] and with B16-F10 [11] were 1.6, 1.3 and 1.5, respectively.

Consider `O=C(CCCCCCOc1cccc(-c2nc3ccccc3[nH]2)c1)NO`, for which the IC50 against Histone deacetylase 1 is 0.024 µM; in [1] it was 0.047 µM; against Histone deacetylase 8, 5.98 µM; in the data set with PC-3 it was 2.7 µM; in the data set on HepG2, 3.9 µM; in the data set on KG-1, 0.19 µM. Also, in the data set with B16-F10 [3], the half-maximal inhibitory concentration (IC50) is 4.8 µM. In addition, the result in the data set with HEL, with B16-F10 [4], in the data set with B16-F10 [5], in the data set on B16-F10 [12] and in the data set with B16-F10 [13] was Active. Further, the Activity result in data set [2], in [6], in data set [7] and in data set [8] was “Non-Toxic” throughout. The figures for the “fold change (FC)” value in the data set on B16-F10 [9], with B16-F10 [10] and in the data set with B16-F10 [11] were 1.6, 1.3 and 1.5, respectively.
